Peptide text beside a SMILES is read from it. * marks the point of attachment. Benzoyl(2,5-(OH)2) = O=C(c1cc(O)ccc1O)*; Benzoyl(2,3-diOH) = O=C(c1cccc(O)c1O)*; Propanoyl(3-cHex) = O=C(CCC1CCCCC1)*; Propanoyl(3-cPent) = O=C(CCC1CCCC1)*; Cyclopentylacetyl = O=C(CC1CCCC1)*; Octanoyl = CCCCCCCC(=O)*; X1 = O=C(c1ccc(O)cc1O)*; X2 = O=C(c1ccc(=O)oc1)*
Experiments:
[1] = molecular target: T1, PLC-γ1 (Bos taurus, UniProt P08487); assay: PLC-inhibiting activity (release of [3H]inositol phosphate from [3H]PIP2); format: biochemical, bovine; conditions: PI-PLC-γ1, 37° C., 10 minutes
T1 construct: A sample (PLC-γ1) was prepared from bovine thymus according to the method of Y. Homma et al; from tissue; host or cells: bovine thymus
T1 sequence (P08487 1-1291): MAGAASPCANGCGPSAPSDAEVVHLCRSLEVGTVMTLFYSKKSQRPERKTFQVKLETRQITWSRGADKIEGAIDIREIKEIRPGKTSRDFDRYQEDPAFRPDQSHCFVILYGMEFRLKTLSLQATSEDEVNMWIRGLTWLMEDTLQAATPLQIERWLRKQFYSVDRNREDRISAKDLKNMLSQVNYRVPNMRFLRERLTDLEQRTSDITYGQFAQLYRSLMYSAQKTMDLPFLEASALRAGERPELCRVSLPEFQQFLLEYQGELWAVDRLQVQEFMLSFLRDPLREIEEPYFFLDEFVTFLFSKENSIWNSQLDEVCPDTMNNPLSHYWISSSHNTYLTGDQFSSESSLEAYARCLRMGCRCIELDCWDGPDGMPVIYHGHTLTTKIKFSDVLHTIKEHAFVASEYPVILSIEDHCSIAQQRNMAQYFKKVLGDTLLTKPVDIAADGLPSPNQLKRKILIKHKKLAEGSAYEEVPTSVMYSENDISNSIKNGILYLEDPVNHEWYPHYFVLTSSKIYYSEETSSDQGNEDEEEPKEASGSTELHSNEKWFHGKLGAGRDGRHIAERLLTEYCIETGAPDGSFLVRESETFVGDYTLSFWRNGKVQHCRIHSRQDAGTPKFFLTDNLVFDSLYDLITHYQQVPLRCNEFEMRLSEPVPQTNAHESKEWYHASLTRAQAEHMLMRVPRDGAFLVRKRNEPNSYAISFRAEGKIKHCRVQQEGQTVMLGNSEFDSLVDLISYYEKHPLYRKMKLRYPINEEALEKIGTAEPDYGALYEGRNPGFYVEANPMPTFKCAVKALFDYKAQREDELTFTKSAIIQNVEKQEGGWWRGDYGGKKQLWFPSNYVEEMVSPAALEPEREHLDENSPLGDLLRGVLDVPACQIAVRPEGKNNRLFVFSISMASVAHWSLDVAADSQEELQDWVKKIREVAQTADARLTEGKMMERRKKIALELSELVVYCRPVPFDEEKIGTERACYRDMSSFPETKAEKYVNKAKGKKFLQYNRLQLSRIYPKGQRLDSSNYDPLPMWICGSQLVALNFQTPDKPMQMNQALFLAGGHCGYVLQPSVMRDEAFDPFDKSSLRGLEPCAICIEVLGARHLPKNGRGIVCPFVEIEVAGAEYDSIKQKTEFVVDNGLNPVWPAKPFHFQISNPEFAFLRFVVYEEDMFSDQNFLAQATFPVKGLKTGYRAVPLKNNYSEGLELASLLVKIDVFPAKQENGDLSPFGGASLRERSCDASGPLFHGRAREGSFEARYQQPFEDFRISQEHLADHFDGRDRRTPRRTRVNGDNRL
Protocol: A sample (PLC-γ1) was prepared from bovine thymus according to the method of Y. Homma et al. described in Biochemical Journal [(Biochem. J.), 269, 13 (1990)]. A solution having the composition listed in Table 1 below was prepared in advance on the ice and the reaction was begun with heating to 37° C. After incubation for 10 minutes, 2 ml of a solution mixture of chloroform/methanol (2:[…]) was added thereto to stop the reaction. The resulting inositol phosphate was extracted with 0.5 ml of 1N hydrochloric acid. Two-phase distribution was carried out by centrifugation (2000×g, 3 minutes), and the amount of ^3 H contained in 0.7 ml of the supernatant was measured with scintillation counter. […] The obtained value of specific radioactivity was defined as "A", the value of specific radioactivity obtained when an equivalent amount of water was added instead of the aqueous solution of the test peptide was defined as "B", the value of specific radioactivity obtained when an equivalent amount of water was added instead of the sample and the aqueous solution of the test peptide was defined as "C", and the inhibition rate (X) was determined according to the following equation. X(%)=[…]

[2] = tested on: KMS-4 cells; assay: Cell proliferation-inhibiting activity (BrdU incorporation, Amersham Cell Proliferation Detection Kit); format: cell-based; conditions: Concentration 31 μM, 17 hours with peptide, BrdU-stained cells
Protocol: The following procedure was carried out with an Amersham Cell Proliferation Detection Kit. First, cells [KMS-4; M. Nanba et al., International Journal of Cancer, 32, 697 (1983)] were suspended in a DMEM culture medium (product of Nissui Seiyaku) containing 10% fetal calf serum to a concentration of 1-2×10^4 cells/ml, and 1 ml of the above-mentioned cell suspension was put into each well of a 24-well plate (product of Corning Co.). The cells were cultured for 2 days in a CO2 incubator (37° C., 5% CO2). Next, the culture medium was exchanged with a DMEM medium containing 10% fetal calf serum, and then the test peptide was added thereto and culturing was carried out for 17 hours. The culture medium was again exchanged with a serum-free DMEM medium, 0.5 ml of a solution of the reagents labelled 5-bromo-2'-deoxyuridine (BrdU) and 5-fluoro-2'-deoxyuridine (FdU) [10:1] diluted 1000-fold with the same medium was added to each well, and cultured for 2 hours. The culture medium was removed, and the cells were immobilized with an acetic acid/ethanol solution. The immobilized cells were stained according to the method for the Amersham Cell Proliferation Kit, and then further stained with a 1% Giemsa solution (product of Merck Co.). The number of cells incorporating BrdU and the total cell count within 1 field of vision of the microscope (approximately 200 cells) were determined, and the proportion (%) of stained cells per field of vision was calculated. Furthermore, the same procedure was repeated 10 times, and the average value thereof was defined as the cell proliferation activity (%). The cell proliferation-inhibiting activity was calculated in the following manner. The proliferation activity without addition of peptide was defined as "A", the proliferation activity with addition of the test peptide was defined as "B", and the cell proliferation inhibition rate (X) was determined according to the following equation. X (%)=[…]

[3] = Concentration 120 μM (aqueous solution of test peptide), read-out: Inhibition rate (%)

Q: Which results are given for `CSCC[C@H](NC(=O)[C@H](CCCCN)NC(=O)[C@H](CCCNC(=N)N)NC(=O)[C@H](Cc1ccc(O)cc1)NC(=O)[C@H](CC(C)C)NC(=O)c1ccc(=O)oc1)C(=O)N[C@@H](CCCNC(=N)N)C(=O)N[C@@H](CC(C)C)C(=O)N[C@@H](CCCNC(=N)N)C(=O)N[C@@H](Cc1ccc(O)cc1)C(=O)N1CCC[C@H]1C(=O)N[C@H](C(N)=O)C(C)C` [(I-12), C5 H3 O2 CO-Leu-Tyr-Arg-Lys-Met-Arg-Leu-Arg-Tyr-Pro-Val-NH2] (X2-LYRKMRLRYPV-NH2)?
A: inhibition at 120 µM (stock) [1, 3]: 40%; Cell proliferation inhibition rate (%) [2]: 69%

Q: What does the source list for `CSCC[C@H](NC(=O)[C@H](CCCCN)NC(=O)[C@H](CCCNC(=N)N)NC(=O)[C@H](Cc1ccc(O)cc1)NC(=O)[C@H](CC(C)C)NC(=O)c1cccc(O)c1O)C(=O)N[C@@H](CCCNC(=N)N)C(=O)N[C@@H](CC(C)C)C(=O)N[C@@H](CCCNC(=N)N)C(=O)N[C@@H](Cc1ccc(O)cc1)C(=O)N1CCC[C@H]1C(=O)N[C@H](C(N)=O)C(C)C` [(I-13), (HO)2 C6 H3 CO-Leu-Tyr-Arg-Lys-Met-Arg-Leu-Arg-Tyr-Pro-Val-NH2] ({Benzoyl(2,3-diOH)}-LYRKMRLRYPV-NH2)?
A: inhibition at 610 µM (stock) ([1]; Concentration 610 μM (aqueous solution of test peptide), read-out: Inhibition rate (%)): 89%; Cell proliferation inhibition rate (%) [2]: 69%

Q: What does the source list for `CSCC[C@H](NC(=O)[C@H](CCCCN)NC(=O)[C@H](CCCNC(=N)N)NC(=O)[C@H](Cc1ccc(O)cc1)NC(=O)[C@H](CC(C)C)NC(=O)c1ccc(O)cc1O)C(=O)N[C@@H](CCCNC(=N)N)C(=O)N[C@@H](CC(C)C)C(=O)N[C@@H](CCCNC(=N)N)C(=O)N[C@@H](Cc1ccc(O)cc1)C(=O)N1CCC[C@H]1C(=O)N[C@H](C(N)=O)C(C)C` [(I-14), (HO)2 C6 H3 CO-Leu-Tyr-Arg-Lys-Met-Arg-Leu-Arg-Tyr-Pro-Val-NH2] (X1-LYRKMRLRYPV-NH2)?
A: inhibition at 120 µM (stock) [1, 3]: 45%; Cell proliferation inhibition rate (%) [2]: 59%

Q: What does the source list for `CSCC[C@H](NC(=O)[C@H](CCCCN)NC(=O)[C@H](CCCNC(=N)N)NC(=O)[C@H](Cc1ccc(O)cc1)NC(=O)[C@H](CC(C)C)NC(=O)c1cc(O)ccc1O)C(=O)N[C@@H](CCCNC(=N)N)C(=O)N[C@@H](CC(C)C)C(=O)N[C@@H](CCCNC(=N)N)C(=O)N[C@@H](Cc1ccc(O)cc1)C(=O)N1CCC[C@H]1C(=O)N[C@H](C(N)=O)C(C)C` [(I-15), (HO)2 C6 H3 CO-Leu-Tyr-Arg-Lys-Met-Arg-Leu-Arg-Tyr-Pro-Val-NH2] ({Benzoyl(2,5-(OH)2)}-LYRKMRLRYPV-NH2)?
A: inhibition at 120 µM (stock) [1, 3]: 41%; Cell proliferation inhibition rate (%) [2]: 66%

Q: Which inhibition at 120 µM (stock) [1, 3] does the source give for `CSCC[C@H](NC(=O)[C@H](CCCCN)NC(=O)[C@H](CCCNC(=N)N)NC(=O)[C@H](Cc1ccc(O)cc1)NC(=O)[C@H](CC(C)C)NC(=O)CCC1CCCCC1)C(=O)N[C@@H](CCCNC(=N)N)C(=O)N[C@@H](CC(C)C)C(=O)N[C@@H](CCCNC(=N)N)C(=O)N[C@@H](Cc1ccc(O)cc1)C(=O)N1CCC[C@H]1C(=O)N[C@H](C(N)=O)C(C)C` [(I-16), C6 H11 CH2 CH2 CO-Leu-Tyr-Arg-Lys-Met-Arg-Leu-Arg-Tyr-Pro-Val-NH2] ({Propanoyl(3-cHex)}-LYRKMRLRYPV-NH2) here?
A: The inhibition at 120 µM (stock) was 51%.

Q: And the “Cell proliferation inhibition rate (%)” value [2]?
A: The value was 84%.

Q: `CSCC[C@H](NC(=O)[C@H](CCCCN)NC(=O)[C@H](CCCNC(=N)N)NC(=O)[C@H](Cc1ccc(O)cc1)NC(=O)[C@H](CC(C)C)NC(=O)CC1CCCC1)C(=O)N[C@@H](CCCNC(=N)N)C(=O)N[C@@H](CC(C)C)C(=O)N[C@@H](CCCNC(=N)N)C(=O)N[C@@H](Cc1ccc(O)cc1)C(=O)N1CCC[C@H]1C(=O)N[C@H](C(N)=O)C(C)C` [(I-17), C5 H9 CH2 CO-Leu-Tyr-Arg-Lys-Met-Arg-Leu-Arg-Tyr-Pro-Val-NH2] (Cyclopentylacetyl-LYRKMRLRYPV-NH2) was tested. Which inhibition at 120 µM (stock) [1, 3] did it give?
A: The inhibition at 120 µM (stock) was 53%.

Q: And the “Cell proliferation inhibition rate (%)” value [2]?
A: Its value is 72%.

Q: What does the source list for `CCCCCCCC(=O)N[C@@H](CC(C)C)C(=O)N[C@@H](Cc1ccc(O)cc1)C(=O)N[C@@H](CCCNC(=N)N)C(=O)N[C@@H](CCCCN)C(=O)N[C@@H](CCSC)C(=O)N[C@@H](CCCNC(=N)N)C(=O)N[C@@H](CC(C)C)C(=O)N[C@@H](CCCNC(=N)N)C(=O)N[C@@H](Cc1ccc(O)cc1)C(=O)N1CCC[C@H]1C(=O)N[C@H](C(N)=O)C(C)C` [(I-21), CH3 (CH2)6 CO-Leu-Tyr-Arg-Lys-Met-Arg-Leu-Arg-Tyr-Pro-Val-NH2] (Octanoyl-LYRKMRLRYPV-NH2)?
A: inhibition at 120 µM (stock) [1, 3]: 86%; Cell proliferation inhibition rate (%) [2]: 56%

Q: `CSCC[C@H](NC(=O)[C@H](CCCCN)NC(=O)[C@H](CCCNC(=N)N)NC(=O)[C@H](Cc1ccc(O)cc1)NC(=O)[C@H](CC(C)C)NC(=O)CCC1CCCC1)C(=O)N[C@@H](CCCNC(=N)N)C(=O)N[C@@H](CC(C)C)C(=O)N[C@@H](CCCNC(=N)N)C(=O)N[C@@H](Cc1ccc(O)cc1)C(=O)N1CCC[C@H]1C(=O)N[C@H](C(N)=O)C(C)C` [(I-23), C5 H9 CH2 CH2 CO-Leu-Tyr-Arg-Lys-Met-Arg-Leu-Arg-Tyr-Pro-Val-NH2] ({Propanoyl(3-cPent)}-LYRKMRLRYPV-NH2) was tested. Which inhibition at 120 µM (stock) [1, 3] did it give?
A: The inhibition at 120 µM (stock) was 53%.

Q: And the “Cell proliferation inhibition rate (%)” value [2]?
A: Its value is 53%.

Q: “H-Glu-Lys-His-Ala-Leu-Tyr-Arg-Lys-Met -Arg-Leu-Arg-Tyr-Pro-Val-OH (H-EKHALYRKMRLRYPV-OH) [Compound (I-4)]” was tested. Which “Inhibition rate (%)” value ([1]; Concentration 120 μM (aqueous solution of test peptide)) did it give?
A: The value was 73%.

Q: For “H-Leu-Tyr-Arg-Lys-Met-Arg-Leu-Arg-Tyr-Pro-Val-OH (H-LYRKMRLRYPV-OH) [Compound (I-5)]”, which “Inhibition rate (%)” value ([1]; Concentration 125 μM (aqueous solution of test peptide)) is on record?
A: The value was 70%.

Q: Which results are given for “H-SLVELVSYYEKHALYRKMRLRYPV-OH [Compound (I-1)]”?
A: inhibition at 15 µM (stock) ([1]; Concentration 15 μM (aqueous solution of test peptide), read-out: Inhibition rate (%)): 55%; inhibition at 55 µM (stock) ([1]; Concentration 55 μM (aqueous solution of test peptide), read-out: Inhibition rate (%)): 88%

Q: For “H-Ser-Leu-Val-Glu-Leu-Val-Ser-Tyr-Tyr-Glu-Lys-His-Ala-OH (H-SLVELVSYYEKHA-OH) [Compound (I-6)]”, which “Inhibition rate (%)” value ([1]; Concentration 105 μM (aqueous solution of test peptide)) is on record?
A: The value was 70%.

Q: With “H-YRKMRLRY-OH [Compound (I-7), H-Tyr-Arg-Lys-Met-Arg-Leu-Arg-Tyr-OH]” as the compound, how does the inhibition at 120 µM (stock) [1, 3] read?
A: Its inhibition at 120 µM (stock) is 70%.

Source: patent publication US5580956A, “Phospholipase C-inhibiting peptides” (priority 1992, dated 1996)
